What was measured:
[1] = In vitro brain homogenate stability, rat; type: in vitro ADME
Experimental: Fresh rodents brains were snap frozen immediately after collection and the assay performed on the same day. Brains were pre-incubated at 37° C. before being spiked with test compound at 1 μM. Samples were collected across 6 time points (0, 10, 20, 30, 45 and 60 minutes) and crashed in cold acetonitrile containing an internal standard (Leucine Enkephalin) and kept on ice until all samples had been collected. The samples were then shaken and centrifuged. 100 μL of supernatant was transferred to a plate containing 50 μL of MilliQ water and mixed. These plates were analyzed by LC-MS/MS over the 6 time points, where the percentage of test compound remaining was calculated using the peak area of the initial timepoint (T=0 minutes) as 100%. The natural log of the percentage remaining was then calculated. The natural log of the percentage remaining versus time (minutes) was plotted on a graph and the gradient of this graph was used to calculate the elimination rate constant (K), The half-life (t1/2) of test compound was calculated using the natural log of 2 divided by the elimination rate constant. The percentage of Compound 2 formed is reported below in Tables 4-6. FIGS. 9A-9F show results of the brain homogenate stability conducted with representative compounds of the Examples.

hMfsd2a = target: T1, hMfsd2a (Homo sapiens, UniProt Q8NA29); test: In vitro Mfsd2a transport, UPLC-MS-MS analysis; type: cell-based; details: transfected HEK293 cells, 50 μM test compound, 1 hour
T1 construct: expressed in transfected cells; host or cells: HEK293
T1 sequence (Q8NA29 1-530 isoform Q8NA29-2): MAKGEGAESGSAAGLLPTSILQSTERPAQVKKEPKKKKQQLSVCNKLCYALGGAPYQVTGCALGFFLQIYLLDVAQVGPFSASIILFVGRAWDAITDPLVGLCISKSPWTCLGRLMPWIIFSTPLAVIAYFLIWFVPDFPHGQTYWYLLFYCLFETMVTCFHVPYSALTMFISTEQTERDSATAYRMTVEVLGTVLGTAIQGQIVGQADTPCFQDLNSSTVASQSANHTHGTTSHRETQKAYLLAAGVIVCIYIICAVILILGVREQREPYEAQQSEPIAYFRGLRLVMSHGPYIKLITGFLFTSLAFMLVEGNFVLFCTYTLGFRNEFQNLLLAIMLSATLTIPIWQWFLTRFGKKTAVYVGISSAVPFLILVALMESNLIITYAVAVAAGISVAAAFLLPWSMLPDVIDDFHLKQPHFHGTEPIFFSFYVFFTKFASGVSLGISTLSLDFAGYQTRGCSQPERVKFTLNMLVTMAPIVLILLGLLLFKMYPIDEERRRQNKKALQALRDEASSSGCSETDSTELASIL
Experimental: The assay was conducted in a low throughput 6-well format with HEK293 cells prepared and then transfected in duplicate wells with plasmids containing either the wildtype (WT) version of hMfsd2a, the D97A mutant version, or an empty vector as control. Uptake into the ceils was assessed by both thin-layer chromatography (TLC) and ultrahigh performance liquid chromatography hyphenated mass spectrometry.
HEK293 cells were seeded at 6.25×10^5 per 6-well in 2 mL of DMEM with 10% FBS and 1% penicillin-streptomycin (P/S) media (Sigma) and incubated overnight at 37° C. in 5% CO2. Cells were checked for confluency the next morning. On a per well basis the following lipid mix was generated, 6 μL of Lipofectamine 2000 was added dropwise to 200 μL of OptiMEM, this was left to stand for 5 minutes at room temperature (RT). 1 μg of hMfsd2a WT, D97A or empty plasmid was prepared in 200 μL of OptiMEM as appropriate for each well; the Lipofectamine 2000 in OptiMEM solution was then added dropwise to a total volume of 400 μL (this can be scaled to support the number of wells/plates to be assayed). This transfection preparation was then incubated at RT for 20 minutes. DMEM with 10% FBS and no P/S media was warmed to 37° C., the HEK293 plate media was changed and the cells washed carefully with 1 mL of the warmed DMEM with 10% FBS no P/S media, 1.6 mL of the warmed DMEM with 10% FBS no P/S media was then added to each well. 400 μL of the transfection preparation was then added dropwise to each well as appropriate and the plate was gently swirled in a circular motion. The plate was then incubated overnight at 37° C. in 5% CO2.
Compound Incubation and Preparation of Analysis Samples Compound stock solutions were prepared in a 12% BSA in PBS solution such that a 40 μL spike into 2 ml, of plain DMEM would yield a concentration of 50 μM of test compound (the compound treated media). Remaining compound stock solution in 12% BSA in PBS was frozen at −20° C. to allow for media stability testing. The HEK293 6-well plate was removed from the incubator and the wells gently rinsed with 1 mL of plain DMEM that had been prewarmed to 37° C. 2 mL of the compound treated media was then added to each well. A 100 μL sample of the compound treated media was sampled to represent a T=0 h sample; 5 μL of this sample (the remainder was reserved and frozen in case of re-analysis being required) was diluted with 45 μL of DMEM and crashed with 50 μL MeCN in a 96-well plate which was sealed and kept on ice. The HEK293 6-well plate was then incubated at 37° C. in 5% CO2 for 1 hour, the plate was then removed from the incubator and a 100 μL sample of media taken from each well to represent a T=1 h sample; 5 μL of this sample (the remainder was reserved and frozen in case of re-analysis being required) was diluted with 45 μL of DMEM and crashed with 50 μL MeCN into the 96-well plate which was re-sealed and stored at −20° C. The remaining media was then removed from the HEK293 6-well plate, the wells were gently rinsed twice with 1 mL of 0.5% BSA in DMEM, the media was then removed and the 6-well plate allowed to dry completely at RT. 1 ml of 3:2 Hexane:Isopropanol (HIP) was added to each well in a fume cupboard and the plate allowed to stand for 30 minutes at RT without shaking. The HIP solution was then transferred to 2 mL Eppendorf tubes, and the process was repeated with a second 1 mL aliquot of HIP and the two aliquots combined. The HIP samples were then dried down under a nitrogen stream.
HIP samples prepared as described above were reconstituted in 100 μL of MeCN, vortex mixed and inverted multiple times to ensure all surfaces of the Eppendorf tube were rinsed with the MeCN and finally pulse centrifuged. […]

With “2-(5Z,8Z,11Z,14Z)-icosa-5,8,11,14-tetraenamidoethyl (trimethylammonio) ethylphosphate [Compound 3]” as the substance, how does the “Rat t1/2” value ([1]; 37° C., test compound at 1 μM) read?
The value was 56 min.

What about the “Clearance in brain homogenate stability study (in words)” value ([1]; one hour incubation, increasing formation of Compound 2) of the same substance?
The value was “demonstrated a level of clearance”.

And the “Transport via Mfsd2a: concentration in HIP samples from WT cells compared with D97A mutant Mfsd2a and/or empty vector cells” value (hMfsd2a)?
The value was “transported via Mfsd2a”.

From patent publication US20220112225A1, “ANANDAMIDE COMPOUNDS” (priority 2019, published 2022)
